Data from patent US20100260680A1, “NOVEL BONE MASS INCREASING AGENT” (ORIENTAL YEAST CO., LTD., priority 2007, published 2010).
Bridges are numbered along the chain shown (N, C = ends). Where no end group is shown, it is not given here.

Key:
RAW264 cells = assay: TRAP activity in RAW264 cells with GST-RANKL; type: cell-based
Experimental: Peptide E (SEQ ID NO: 16) was prepared from peptide D with the substitution of a single amino acid. TRAP activity and ALP activity were determined to compare peptide D and peptide E in terms of effects of causing osteoclast differentiation and osteoblast differentiation. RAW264 cells mixed with 10% FBS+αMEM (SIGMA) were seeded on a 96-well plate (2×10^3 cells/well). After confirmation of cell adhesion, the medium was replaced with 10% FBS+αMEM containing 10 nM GST-RANKL (Oriental Yeast Co., Ltd.). Peptide D and peptide E were separately added thereto at concentrations of 25, 50, 100, and 200 μM, followed by culture for 4 days. After the termination of culture, 100 μL acetone/ethanol was added to each well for cell fixation, followed by drying in a draft for 30 min.
In order to obtain a TRAP solution buffer at a concentration of 1.5 mg/mL, a solution was prepared by adjusting p-nitrophenyl phosphate (Nacalai) with 50 mM citric acid buffer and adding a 0.2 M sodium tartrate solution in a volume 1/10 that of citric acid buffer. The obtained TRAP solution buffer was added to each well in an amount of 100 μL followed by incubation at 37° C. for 45 min. Then, a 1N NaOH solution (50 μL) was added thereto to terminate the reaction. The OD value at 405 nm was determined for each well with a microplate reader (BMG Labtech) in the same manner as in Example 1.
RAW264 cells mixed with 10% FBS+αMEM (SIGMA) were seeded on a 96-well plate (2×10^3 cells/well). After cell adhesion had taken place, the medium was replaced with 10% FBS+αMEM containing 5 nM GST-RANKL (Oriental Yeast Co., Ltd.). Peptide D in the form of TFA, peptide D in the form of acetate, and peptide D in the form of hydrochloride with concentrations of 25 and 100 μM were separately added thereto, followed by culture for 4 days. After the completion of culture, acetone/ethanol (100 μL) was added to each well for cell fixation, followed by drying in a draft for 30 min. TRAP activity determination was carried out by the method described in Example 16. […] Peptide D in the form of hydrochloride was confirmed to have neither osteoblast differentiation activity nor osteoclastgenesis inhibition activity. However, peptide D in the form of acetate was confirmed to have higher osteoblast differentiation activity and lower osteoclastgenesis inhibition activity compared with peptide D in the form of TFA. […] It is also possible to produce modified peptide D having osteoblast differentiation activity alone or modified peptide D having osteoclastgenesis inhibition activity alone.

MC3T3-E1 cells = assay: ALP activity determination in MC3T3-E1 cells; type: cell-based, mouse; conditions: for inhibition of ALP activity enhancement caused by BMP-2: 100 ng/ml BMP-2; for inhibition of ALP activity enhancement caused by peptide D: 200 μM peptide D
Experimental: Seven days after differentiation, the culture supernatant was removed from each plate and the cells were fixed with an acetone/ethanol solution. The ALP activity was determined using p-nitrophenyl phosphate as a substrate. Specifically, a carbonate buffer (5 mM MgCl2, 50 mM NaHCO3) containing p-nitrophenyl phosphate (Nacalai) (1 mg/mL) was added to each well (100 μL/well), followed by incubation at 37° C. Then, the OD value at 405 nm was determined with the use of a microplate reader (BMG Labtech) for each well.
Cells mixed with 10% FBS+αMEM (GIBCO) were seeded on a 96-well plate (8×10^3 cells/well) and a 48-well plate (2×10^4 cells/well). The culture supernatant of each plate was replaced with 10% FBS+αMEM containing 5 mM β glycerophosphoric acid (SIGMA)+10 μg/mL sodium ascorbate (SIGMA) 48 hours later. Then, the medium was replaced with new medium every 3 or 4 days. As a control, MC3T3-E1 was cultured with the use of 10% FBS+αMEM as a maintenance medium. Upon medium replacement, a peptide was added to each plate at a concentration of 300 μM, ALP activity determination and alizarin red S staining were carried out by the method described in Example 1 on Days 7 and 21.
MC3T3-E1 cells mixed with 10% FBS+αMEM (SIGMA) were seeded on a 96-well plate (1.5×10^4 cells/well). After 12 hours, the medium was removed therefrom and a medium containing an SB203580 p38 inhibitor (Calbiochem) was added thereto. […] Then, ALP activity determination was carried out by the method described in Example 1.
Similarly, rhDkk-1 (R&D) was added as a Wnt antagonist at concentrations of 0.25, 0.5, and 1 μg/ml. After 1 hour, 200 μM peptide D was added thereto, followed by culture for 5 days. Then, ALP activity determination was carried out by the method described in Example 1.
In addition, as described above, BMPR-IA (R&D) was added as a BMP antagonist at concentrations of 0.25 and 1 μg/ml. […] Then, ALP activity determination was carried out by the method described in Example 1. […] Based on the above results, it was likely that actions of peptide D depend on BMP induction or BMP produced constantly and spontaneously by cells.
MC3T3-E1 cells mixed with 10% FBS+α MEM (SIGMA) were seeded on a 96-well plate (1.5×10^4 cells/well).
Further, peptide D and peptide E were compared with each other in terms of ALP activity enhancement actions in MC3T3-E1 cells. Peptide D and peptide E were used at concentrations of 25, 50, 100, and 200 μM for culture under the conditions described in Example 14, followed by determination of ALP activity by the method described in Example 1.
MC3T3-E1 cells (mouse osteoblast precursor cells) mixed with 10% FBS+αMEM (SIGMA) were seeded on a 96-well plate (2×10^4 cells/well). After cell adhesion, the medium was removed therefrom, followed by ALP activity determination in the cases involving the addition of 50 and 150 μM peptide D (acetate and hydrochloride). […] On Day 5 after the addition of the individual factors, the culture supernatant was removed, followed by ALP activity determination by the method described in Example 1.
MC3T3-E1 cells (mouse osteoblast precursor cells) mixed with 10% FBS+αMEM (SIGMA) were seeded on a 96-well plate (2×10^4 cells/well). After cell adhesion had taken place, the medium was removed therefrom, followed by determination of ALP activity in the cases involving the mixing of 5 ng/mLBMP-2 (produced by CHO cells) with 6.25, 12.5, 25, 50, and 100 μM synthetic peptide D. On Day 5 after the addition of the individual factors, the culture supernatant was removed, followed by ALP activity determination by the method described in Example 1.
At the end of the experiment, synergistic effects of synthetic peptide D in the form of acetate and BMP-4 (R&D) were also examined. MC3T3-E1 cells (mouse osteoblast precursor cells) mixed with 10% FBS+αMEM (SIGMA) were seeded on a 96-well plate (2×10^4 cells/well). […]

RANKL = biological target: T1, RANKL (Homo sapiens, UniProt O14788); conditions: Aoki et al., J Clin Invest 116: 1525, 2006; cited from earlier work
T1 sequence (O14788 140-317 limits assumed): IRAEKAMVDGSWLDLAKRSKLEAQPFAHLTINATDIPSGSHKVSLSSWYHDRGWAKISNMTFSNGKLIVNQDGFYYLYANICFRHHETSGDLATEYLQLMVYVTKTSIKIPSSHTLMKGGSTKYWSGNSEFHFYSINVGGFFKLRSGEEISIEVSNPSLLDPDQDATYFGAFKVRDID

C57BL/6N mice = assay: RANKL administration test, bone morphology measurement; type: in vivo, mouse
Experimental: GST-RANKL was intraperitoneally administered at 57 nmol (low dose) or at 426 nmol (high dose) to 7-week-old female C57BL/6N mice (10 individuals) every 24 hours for three times. The mice were dissected 1.5 hours after the third administration. For comparison, a group to which PBS had been administered was used as a control.
The following organs were collected from each dissected mouse: femur, tibia, cerebrum, lungs, heart, liver, thymus, spleen, kidneys, and skin. Naturally occurring lesions were observed by HE staining of the cerebrum, the lungs, the heart, the liver, the thymus, the spleen, the kidneys, and the skin.

[1] = compared at concentrations with almost comparable effects
[2] = high dose 426 nmol i.p. every 24 hours, three times

peptide E: SEQ ID NO: 16, prepared from peptide D with the substitution of a single amino acid; cyclic, Cys2-Cys8 disulfide (YCWSQNLCY; disulfide 2-8)
TRAP activity (RAW264 cells; 25, 50, 100 and 200 μM, 10 nM GST-RANKL, 4 days): inhibit TRAP activity | TRAP activity inhibition actions relative to the initial level (peptide D) (RAW264 cells; [1]): one-half | ALP activity (MC3T3-E1 cells; 25, 50, 100 and 200 μM, 5 days): enhance ALP activity in a concentration-dependent manner | ALP activity enhancement actions relative to the initial level (peptide D) (MC3T3-E1 cells; [1]): approximately ¼ | affinity to sRANKL relative to the initial level (peptide D) (RANKL): approximately ⅓

GST-RANKL: GST fusion protein with amino acids 140 to 317 of human RANKL (SEQ ID NO: 15)
HE staining of cerebrum, lungs, heart, liver, thymus, spleen, kidneys, skin (C57BL/6N mice; any group (57 nmol, 426 nmol)): abnormal findings and naturally occurring lesions were not observed | osteoclast number (C57BL/6N mice; [2]): increased | trabecular number (C57BL/6N mice; [2]): approximately 50% | unit bone mass (C57BL/6N mice; [2]): approximately 50% | osteoblast surface area (C57BL/6N mice; high-dose administration): significantly increased | femur bone morphology by μCT (C57BL/6N mice; high-dose administration group): significant bone decrease | unit bone mass and trabecular number (C57BL/6N mice; low dose 57 nmol i.p. every 24 hours, three times): no such decrease was observed | inhibition of synergistic ALP activity enhancement of peptide D (acetate) and BMP-2 (MC3T3-E1 cells; 100 nM, 100 μM peptide D acetate + 5 ng/mL BMP-2, Day 5): significantly inhibited synergistic effects

C[S+]([O-])c1ccc(-c2nc(-c3ccncc3)c(-c3ccc(F)cc3)[nH]2)cc1 (centres unmarked) [SB203580, reference compound]
inhibition of ALP activity enhancement caused by BMP-2 (MC3T3-E1 cells; SB203580 1 μM, 5 days): significant inhibition of ALP activity enhancement was not observed | inhibition of ALP activity enhancement caused by peptide D (MC3T3-E1 cells; SB203580 1 μM, 5 days): Significant inhibition | inhibition of ALP activity enhancement caused by peptide D (MC3T3-E1 cells; SB203580 10 μM, 5 days): complete inhibition | inhibition of ALP activity enhancement caused by BMP-2 (MC3T3-E1 cells; SB203580 at a concentration of 10, 5 days): weak effects of inhibition

Fc fusion peptide A: fusion protein of peptide A (SEQ ID NO: 47, YCAAAAACY) and Fc; negative control [reference compound]
ALP activity (MC3T3-E1 cells; concentrated COS-1 culture supernatant diluted with αMEM, Day 5): such ALP activity enhancement action was not observed

B1: BMPR-IA: BMPR-IA (R&D), BMP antagonist (protein, UniProt P36894 24-152, looked up)
extracellular domain: QNLDSMLHGTGMKSDSDQKKSENGVTLAPEDTLPFLKCYCSGHCPDDAINNTCITNGHCFAIIEEDDQGETTLASGCMKYEGSDFQCKDSPKAQLRRTIECCRTNLCNQYLQPTLPPVVIGPFFDGSIR
modifications: extracellular domain soluble reagent
notes: BMPR-IA (R&D), BMP antagonist
inhibition of ALP activity enhancement caused by peptide D and BMP-2 (MC3T3-E1 cells; BMPR-IA 0.25 and 1 μg/ml, 200 μM peptide D or 200 ng/ml BMP-2, 5 days): significantly inhibit

B2: Dkk-1: rhDkk-1 (R&D), Wnt antagonist (protein, UniProt O94907 32-266, looked up)
Dickkopf-related protein 1: TLNSVLNSNAIKNLPPPLGGAAGHPGSAVSAAPGILYPGGNKYQTIDNYQPYPCAEDEECGTDEYCASPTRGGDAGVQICLACRKRRKRCMRHAMCCPGNYCKNGICVSSDQNHFRGEIEETITESFGNDHSTLDGYSRRTTLSSKMYHTKGQEGSVCLRSSDCASGLCCARHFWSKICKPVLKEGQVCTKHRRKGSHGLEIFQRCYCGEGLSCRIQKDHHQASNSSRLHTCQRH
inhibition of ALP activity enhancement caused by peptide D (MC3T3-E1 cells; rhDkk-1 0.25, 0.5 and 1 μg/ml, 5 days): weakly but significantly inhibit
